The subject of this experiment is subgenomic HCV replicon in Huh-7 cells. The experiment can be described thus: microbe, parasite or virus in culture. Conditions: Hepatitis C virus, Huh-7, 72 h, read-out: EC50 (50% inhibitory concentration) in HCV replicon cells. The class given is cell-based. In general terms: Replicon systems follow genome replication, usually without infectious particles.

Structures are written as SMILES.

Turning to `[2H]C([2H])(OP(=O)(N[C@H](C)C(=O)OC(C)C)Oc1ccccc1)[C@@]1(F)O[C@@H](n2cnc3c(OCC)nc(N)nc32)[C@](C)(F)[C@@H]1O` (stereo partly shown) [Compound 2], the EC50 is less than 1000 nM.
